The values below come from patent EP2934524B1, “PENETHAMATE VETERINARY INJECTABLE FORMULATIONS” (Alleva Animal Health Limited, priority 2012, dated 2014).

Data set [1] can be described thus: Estimated solubility and discolouration of penethamate in organic solvents. The following applies: Solketal, propylene glycol, glycerol formal and DGMEE. It is filed as physicochemical. From the text:
Solubility of penethamate was estimated at the concentrations of 0.2% w/w and 1.0% w/w, in the following solvents: glycerine, Solketal, polyethylene glycol 200 (PEG 200), diethylene glycol butyl ether (DGBE), propylene glycol (PG), glycofural, diethylene glycol monomethyl ether (DGME), diethylene glycol methyl ethyl ether (DGMEE), dimethyl isosorbide (DMI), 2-pyrrolidone (2-pyrol), N-methyl-2-pyrrolidone (NMP), dimethyl acetamide (DMA), glycerol formal (GF), benzyl alcohol (BA), ethyl lactate and dimethyl sulfoxide (DMSO).

The conditions of data set [2]: following injection, equivalent dose; cited from earlier work.

Regarding `CCN(CC)CCOC(=O)[C@@H]1N2C(=O)[C@@H](NC(=O)Cc3ccccc3)[C@H]2SC1(C)C` [penethamate hydriodide, 2-(diethylamino)ethyl (2S,5R,6R)-3,3-dimethyl-7-oxo-6-[(2-phenylacetyl)amino]-4-thia-1-azabicyclo[3.2.0] heptane-2-carboxylate], the “discolouration in organic solvent” value in data set [1] (0.2% w/w and 1.0% w/w in glycerine) is recorded as “no discolouration”. Moreover, the “solubility in organic solvent” value in data set [1] (estimated at 0.2% w/w and 1.0% w/w in glycerine) was “minimal solubility”. Besides, the “levels of penicillin in the milk relative to other benzyl-penicillin preparations” value in data set [2] is “about 10 times higher”.
